According to patent US9056914B2, “Anticancer derivatives, preparation thereof and therapeutic use thereof” (priority 2010, dated 2015):

Tests used:
Format in all cases: cell-based
MDA-MB-231 cells = experiment: Inhibition of proliferation of MDA-MB-231 cells by tomaymycin dimers (14C-thymidine incorporation); conditions: Homo sapiens, MDA-MB231, 3 days culture, 14C-thymidine incorporation at 96 h, read-out: Inhibition of proliferation (14C-thymidine pulse at 96 h) IC50 MDA-MB231
Experimental: (§1) Evaluation of the Inhibition of Proliferation of the Cell Lines MDA-MB-231, MDA-A1 and HCT116 with the Compounds of Formula (IA) with RCG1=—SZa (Za=SMe) or RCG1=—C(═O)ZbRb (ZbRb=OMe)
(§2) MDA-MB-231, MDA-A1 or HCT116 cells in their exponential growth phase were trypsinized and resuspended in their respective culture medium (DMEM/F12 Gibco #21331, 10% FCS Gibco #10500-056, […] Glutamine Gibco #25030 for the MDA cells; DMEM Gibco #11960, 10% FCS Gibco #10500-056, 2 mM Glutamine Gibco #25030 for the HCT116 cells). The cell suspension was seeded in Cytostar 96-well culture plates (GE Healthcare Europe, #RPNQ0163) in the complete culture medium containing serum to a density of 5000 cells/well (MDA-MB-231, MDA-A1, HCT116). After incubation for 4 hours, successive dilutions of the tomaymycin dimers were added to the wells in triplicate for each concentration. The cells were cultured for 3 days at 37° C. under an atmosphere of 5% CO2 in the presence of the cytotoxic agents. On the fourth day, 10 μl of a solution of ^14C-thymidine (0.1 μCi/well, Perkin Elmer #NEC56825000) were added to each well. The incorporation of ^14C-thymidine was measured 96 hours after the start of the experiment with a Microbeta radioactivity counter (Perkin Elmer). The data are expressed in the form of a percentage of survival by determining the ratio between the Count obtained with the cells treated with the cytotoxic agents and that obtained with the cells of the control wells (treated with the culture medium alone).

HCT116 cells = experiment: Inhibition of proliferation of HCT116 cells by tomaymycin dimers (14C-thymidine incorporation); conditions: Homo sapiens, HCT-116; HCT116, 3 days culture, 14C-thymidine incorporation at 96 h; read-out: Inhibition of proliferation (14C-thymidine pulse at 96 h) IC50 HCT116
Experimental: as §1, §2

MDA-A1 cells = experiment: Inhibition of proliferation of MDA-A1 cells by tomaymycin dimers (14C-thymidine incorporation); conditions: MDA-A1, 3 days culture, 14C-thymidine incorporation at 96 h; read-out: Inhibition of proliferation (14C-thymidine pulse at 96 h) IC50 MDA-A1
Experimental: as §1, §2

| SMILES | IC50 (MDA-MB-231 cells) [nM] | IC50 (HCT116 cells) [nM] | IC50 (MDA-A1 cells) [nM] |
| --- | --- | --- | --- |
| C/C=C1\C[C@H]2C=Nc3cc(OCc4cc(OCCN(CCOCCOCCOC)CC(C)(C)SSC)cc(COc5cc6c(cc5OC)C(=O)N5C/C(=C/C)C[C@H]5C=N6)n4)c(OC)cc3C(=O)N2C1 | 0.128 | 0.061 | 16.3 |
| C/C=C1\C[C@H]2C=Nc3cc(OCc4cc(OCCN(CCOCCOCCN5CCOCC5)CC(C)(C)SSC)cc(COc5cc6c(cc5OC)C(=O)N5C/C(=C/C)C[C@H]5C=N6)n4)c(OC)cc3C(=O)N2C1 | 0.081 | 0.048 | 26.5 |
| C/C=C1\C[C@H]2C=Nc3cc(OCc4cc(OCCN(CCOCCOCCOC)CCC(=O)OC)cc(COc5cc6c(cc5OC)C(=O)N5C/C(=C/C)C[C@H]5C=N6)n4)c(OC)cc3C(=O)N2C1 | 0.384 | 0.235 | 17.8 |
| C/C=C1\C[C@H]2C=Nc3cc(OCc4cc(OCCN(CCCC(=O)OCC)C(=O)CCOCCOCCOCCOC)cc(COc5cc6c(cc5OC)C(=O)N5C/C(=C/C)C[C@H]5C=N6)n4)c(OC)cc3C(=O)N2C1 | 5.67 | 4.98 | > 50 |
| C/C=C1\C[C@H]2C=Nc3cc(OCc4cc(OCCN(CCCC(=O)OCC)CCOCCOCCOC)cc(COc5cc6c(cc5OC)C(=O)N5C/C(=C/C)C[C@H]5C=N6)n4)c(OC)cc3C(=O)N2C1 | 0.041 | 0.018 | 3.46 |
